IC50 data for 5 molecules are collected here from ChEMBL document CHEMBL1148585, “Classification of chemical compounds by protein-compound docking for use in designing a focused library” (J Med Chem, 2006).

In this test the target is T1, Macrophage migration inhibitory factor (Homo sapiens, UniProt P14174).
T1 sequence (P14174 whole entry): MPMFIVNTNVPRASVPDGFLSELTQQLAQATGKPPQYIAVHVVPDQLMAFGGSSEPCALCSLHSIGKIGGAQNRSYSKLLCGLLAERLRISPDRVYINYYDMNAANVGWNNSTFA
The test is described as follows: Inhibition of MIF.
In turn, `Oc1ccc(CSc2ccncc2)cc1O` had a 50% inhibitory concentration (IC50) of 0.4 µM.
With `O=C(c1cnc(CCCC2CCCCC2)o1)N1CCN(Cc2ccccc2)CC1` the figure was 30 µM.
In the case of `CC(C)C(=O)Nc1cc2c(cc1CCc1cccc3ccccc13)C(C(=O)O)CC2c1cccs1` (stereo not given) it was 8 µM; in that of `O=C(O)C1Nc2ccc(Br)cc2C2C=CCC12` (stereo not given), 3.4 µM; in that of `O=C(O)CC(c1ccc(Cl)cc1)(c1ccc(Cl)cc1)c1ccc(Cl)cc1`, 8.1 µM.
